Assay results from PubChem BioAssay AID179 (DTP/NCI, 2004).
Calls of active or inactive are those of the source.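 Rule for the calls: active = compounds giving half or more protection of infected cells from virus-caused growth loss, again on retest; inactive = the rest.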

Tested on: CEM cells HIV-1 protection, formazan growth assay
Assay: NCI AIDS Antiviral Assay
Conditions: for IC50: measured here: growth of uninfected CEM cells
Method in brief: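 Screen of anti-HIV-1 activity in human CEM cells using a formazan-based growth measurement at five drug concentrations. Hits with 50% or greater protection were repeated, and confirmation required reproducible complete protection.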

Row | SMILES | outcome | EC50 [µM] | IC50 [µM]
1 | O=C(NO)c1ccc(C(=O)NO)c(Br)c1 | inactive | – | –
2 | CCCCC1CC(c2cccc([N+](=O)[O-])c2)=NO1 (configuration not stated) | – | > 15.1 | > 15.1
3 | C=C(C)COC(=O)C1C2CC(C3OC23)C1C(=O)OCC(=C)C (configuration not stated) | – | > 200 | 112
4 | C[C@]12CC[C@H](CCC=C(c3cc(Cl)c(O)c(C(=O)O)c3)c3cc(Cl)c(O)c(C(=O)O)c3)C[C@@H]1CC[C@@H]1[C@@H]2CC[C@]2(C)[C@@H](CCC=C(c3cc(Cl)c(O)c(C(=O)O)c3)c3cc(Cl)c(O)c(C(=O)O)c3)CC[C@@H]12 | – | 6.61 | 110
5 | CCCCCCCCOC1N(C2CC(N=[N+]=[N-])C(CO)O2)C(=O)NC(=O)[C@]1(C)Br (some centres not stated) | – | 0.427 | 12.6
6 | CC1=Nc2ccccc2NC(c2ccoc2)C1 (configuration not stated) | – | > 22.9 | > 22.9
7 | CC(=O)[O-].CC(=O)[O-].O=C(N/N=C/c1cc(Cl)cc(Cl)c1[OH2+])c1ccncc1.[Co+2] | inactive | – | –
8 | CC(C)[C@@H]1CC[C@]2(COC(=O)CC3(CC(=O)O)CCCC3)CC[C@]3(C)[C@H](CC[C@@H]4[C@@]5(C)CC[C@H](OC(=O)CC6(CC(=O)O)CCCC6)C(C)(C)[C@@H]5CC[C@]43C)[C@@H]12 | – | > 200 | 6.46
9 | O=C(Cc1nc2ccc(C(=O)c3ccccc3)cc2[nH]c1=O)C(=O)Nc1nc2ccccc2[nH]1 | inactive | – | –
10 | C=C(C)[C@@H]1CC[C@]2(C)CC[C@@]3(C)[C@]4(C)CC[C@H]5C(C)(C)[C@@H](OC(=O)CCC(=O)O)CC[C@]5(C)[C@H]4CC[C@]3(C)[C@@H]12 | – | 44.7 | > 100
11 | CCC1CN2CCc3cc(OC)c(OC)cc3C2CC1CC1c2cc(OC)c(OC)cc2CCN1C(=O)CNC(=O)OC(C)(C)C (configuration not stated) | inactive | – | –
12 | N#Cc1c(NN)nc(NN)c(C#N)c1-c1ccccc1 | – | > 97.7 | 50.1
13 | O=C1CCc2c(Cl)sc(Cl)c21 | – | > 331 | 151
14 | c1ccc2c(c1)SCCC2NC1=NCCO1 (configuration not stated) | – | > 200 | 162
15 | CCCCCCCCC=CCCCCCCCC(=O)O[C@H](COC(=O)CCCCCCC/C=C\CCCCCCCC)COP(=O)(O)OCCNC(=O)CCC(=O)OCCC=C(c1cc(Cl)c(OC)c(C(=O)OC)c1)c1cc(Cl)c(OC)c(C(=O)OC)c1 | – | > 100 | 60.3
16 | O=c1[nH]c2nccn2c2c1SCCN2 | – | > 200 | > 200
17 | Nn1c(CCCCCCCCc2nnc(COc3ccc4ccccc4c3O)n2N)nnc1COc1ccc2ccccc2c1O | – | > 200 | 2.45
18 | CC(=O)OC1CC2CCC3C(CCC4(C)C3CC([N+]3(C)CCCCC3)C4OC(C)=O)C2(C)CC1[N+]1(C)CCCCC1 (configuration not stated) | – | > 200 | > 200
19 | CC(=O)Nc1ccc(OC2=CCN(C)CC2)cc1 | – | > 200 | > 200
20 | O=C(O)CSC(=S)N1CCCC1 | – | > 200 | 102

Row | SMILES | outcome | EC50 [µM] | IC50 [µM]
21 | Cc1ccc(-c2n[nH]c(Cc3nc(-c4ccc(C)cc4)n[nH]3)n2)cc1 | – | > 200 | > 200
22 | CC(c1ccccc1)N1O[C@]12CC[C@@]1(C)C(CCCC13OCCO3)C2 (some centres not stated) | inactive | – | –
23 | Cc1ccc[n+](N)c1N | – | > 1000 | > 1000
24 | Oc1ccccc1/C=N/N=C/c1ccccc1O | – | > 200 | > 200
25 | CC1=C(C(=O)NNS(=O)(=O)c2ccc(C)cc2)CC(C(=O)NNS(=O)(=O)c2ccc(C)cc2)=C(C)N1 | – | > 13.5 | > 13.5
26 | O=CC(O)C(O)C(O)C(O)COP(=O)(O)Cc1ccccc1 (configuration not stated) | – | > 200 | > 200
27 | NC(N)=NN=C1CCCCC1 | – | > 200 | > 200
28 | COc1ccc2c(c1)CCN1C3=C(CCC3)C(=O)C[C@@H]21 | inactive | – | –
29 | CC(=O)Oc1ccc2cc(Oc3ccccc3)c(=O)oc2c1 | – | > 200 | 85.1
30 | CC1(C)OC[C@H](COCOP2(=O)Oc3ccc4ccccc4c3-c3c(ccc4ccccc34)O2)O1 | – | > 200 | 34.7
31 | O=c1c2ccccc2[nH]c(=S)n1-c1ccc(Br)cc1 | – | > 40.7 | > 40.7
32 | O=C1NC(=O)C2C(=O)NC(=O)C1C2c1c(Cl)cccc1Cl (configuration not stated) | – | > 759 | 501
33 | CCc1c(-c2coc(CC/C(C)=C/c3ccccc3)n2)oc(OC)c(C)c1=O | – | > 9.55 | 0.251
34 | C=C1C(=O)OC2CC(C)C3(O)C=C(C(C)=O)C4(OC3CC12)C(=O)OC1CC(C)C(/C=C\C(C)=O)=CCC14 (configuration not stated) | – | > 37.2 | 19.1
35 | CC(C)CCC[C@@H](C)C1CCC2[C@@H]3CC=C4C[C@@H](OP(=O)(O)O)CC[C@]4(C)C3CC[C@@]21C (some centres not stated) | – | > 28.2 | > 28.2
36 | CN(C)CCC(CCN(C)C)=NO | – | > 955 | > 955
37 | O=c1[nH]c(=O)n(C2OC(CF)C(O)C2O)cc1N1CCOCC1 (configuration not stated) | – | > 200 | > 200
38 | C/C(=N/NC(=S)Nc1ccc(C)cc1)c1ccccn1 | – | > 0.2 | 0.0794
39 | CC1=Cc2cccc(C)c2C(=O)C1=O | – | > 38.9 | 6.46
40 | CN1N(c2ccccc2)C(=O)C2=NC=C(C(=O)c3ccc(Cl)cc3)C(=N)C21C (configuration not stated) | – | > 200 | > 200

Row | SMILES | outcome | EC50 [µM] | IC50 [µM]
41 | O=S1(=O)OC2(c3ccccc31)c1cc(Br)c(O)c(O)c1Oc1c2cc(Br)c(O)c1O | – | > 39.8 | 36.3
42 | COC(=O)c1c(C)cc(OC(=O)c2c(C)cc(O)c(/C=N\O)c2O)c(C)c1O | – | > 151 | 9.77
43 | O=c1cc(N2CCOCC2)n2ccccc2n1 | – | > 200 | > 200
44 | Cc1ccccc1N=Cc1ccc(N(CCC#N)S(=O)(=O)c2ccccc2)cc1 | – | > 617 | 479
45 | COc1ccc2c(c1)N=C(N)n1c(nc3ccccc31)S2 | – | > 200 | 6.61
46 | O=CN1CCN(c2ccc3ccc(=O)[nH]c3n2)CC1 | – | > 200 | > 200
47 | COC(=O)C1(CCC(=O)N(C)c2ccccc2)NNC2C(=O)N(c3ccccc3)C(=O)C21 (configuration not stated) | – | > 200 | > 200
48 | C#CCN(C(=O)C(F)(F)F)c1ccc(C(=O)c2ccc(N(CC#C)C(=O)C(F)(F)F)cc2)cc1 | – | > 28.2 | > 28.2
49 | COc1cc2nc(CC(O)c3nc4cc(OC)c(OC)cc4[nH]3)[nH]c2cc1OC (configuration not stated) | – | > 200 | 17.4
50 | Cc1cc(-n2nnc(C(=O)O)c2-c2ccccc2)c2ccc(Cl)cc2n1 | – | > 200 | > 200
51 | O=C(Nc1ccccc1C(=O)Nc1nccs1)c1ccccc1 | – | > 200 | 32.4
52 | Cc1ccc([N+](=O)[O-])cc1NC(=O)C(=O)Cc1occc(=O)c1O | inactive | – | –
53 | Cc1ccccc1NC(=O)Cc1csc2[n+]1C(=O)/C(=C/c1ccc([N+](=O)[O-])cc1)S2 | – | > 200 | 38.9
54 | O=C1ONN(c2ccccc2)/C1=C/N=Nc1ncnc2nc[nH]c12 | – | 162 | > 200
55 | CCOC(=O)Nn1cnnc1Cc1ccccc1 | – | > 200 | > 200
56 | S=C(NC1=NCC(CN2CCN(c3ccccc3)CC2)O1)Nc1ccccc1 (configuration not stated) | – | > 200 | 45.7
57 | CCOc1ccc(/C=C(\C#N)c2cccc(Cl)c2)cc1 | – | > 200 | 8.51
58 | CNC(=O)N1CCN(C(=O)NC)CCN(C(=O)NC)CC1 | – | > 200 | > 200
59 | CC1(C)CC(=O)C(Cc2ccccc2)(Cc2ccccc2)C(=O)C1 | inactive | – | –
60 | Cc1nnc(NS(=O)(=O)c2ccc(N=Nc3cc4ccccc4c(C(=O)O)c3O)cc2)s1 | – | > 200 | 22.9
